Source: ChEMBL document CHEMBL1148080, “Identification of an activator of the retinoid X receptor” (J Nat Prod, 1994)
Activity calls are given as the source filed them. The calls are words filed in the database; no cut-off is given here.

Molecular target: T1, Retinoic acid receptor alpha (Homo sapiens) (UniProt P10276)
T1 sequence (whole entry): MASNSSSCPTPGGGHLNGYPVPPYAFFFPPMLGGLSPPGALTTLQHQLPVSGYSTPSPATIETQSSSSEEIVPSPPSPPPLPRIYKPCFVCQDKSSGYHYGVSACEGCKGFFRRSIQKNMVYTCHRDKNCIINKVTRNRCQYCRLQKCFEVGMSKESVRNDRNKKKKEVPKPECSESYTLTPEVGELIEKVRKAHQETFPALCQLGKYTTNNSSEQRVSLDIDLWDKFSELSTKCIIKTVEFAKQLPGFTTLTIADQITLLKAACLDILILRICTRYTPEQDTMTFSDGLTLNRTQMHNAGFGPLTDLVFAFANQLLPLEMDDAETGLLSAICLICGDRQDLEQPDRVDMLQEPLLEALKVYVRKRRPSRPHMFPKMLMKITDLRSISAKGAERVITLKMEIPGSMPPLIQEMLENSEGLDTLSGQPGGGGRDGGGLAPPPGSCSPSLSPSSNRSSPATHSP
Test: Transactivation of RARalpha expressed in mammalian cells assessed as effect on palindromic thyroid hormone response element-driven transcriptional activation by luciferase reporter gene assay
Type: cell-based

CC1=C(/C=C/C(C)=C\C=C\C(C)=C\C(=O)O[C@@H]2O[C@H](CO)[C@@H](O)[C@H](O)[C@H]2O)C(C)(C)CCC1
Activity: Active
